Measurements from patent publication US9518064B2, “Imidazothiadiazole and imidazopyridazine derivatives as protease activated receptor 4 (PAR4) inhibitors for treating platelet aggregation” (BRISTOL-MYERS SQUIBB COMPANY, priority 2012, dated 2016).
pIC50: −log10 of the molar value.

Target: PAR4 (Homo sapiens (Human), UniProt Q96RI0)
Experiment: FLIPR assay in PAR4-expressing HEK293 cells (calcium mobilization)
Format: cell-based
Conditions: PAR4 antagonist activity, FLIPR assay as described in Example A

PAR4, sequence (Q96RI0 18-385): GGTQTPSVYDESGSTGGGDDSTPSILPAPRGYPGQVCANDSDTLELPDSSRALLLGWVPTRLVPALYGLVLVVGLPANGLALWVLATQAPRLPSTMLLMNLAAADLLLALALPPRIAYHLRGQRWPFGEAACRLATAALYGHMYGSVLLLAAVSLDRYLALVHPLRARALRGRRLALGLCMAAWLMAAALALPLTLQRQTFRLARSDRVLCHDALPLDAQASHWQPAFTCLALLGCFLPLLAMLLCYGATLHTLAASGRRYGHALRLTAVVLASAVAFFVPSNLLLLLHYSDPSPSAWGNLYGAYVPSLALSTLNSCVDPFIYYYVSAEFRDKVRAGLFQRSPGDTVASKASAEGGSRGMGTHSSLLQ

COc1cc(OCc2cccc(-c3ncccc3F)c2)c2cc(-c3cn4nc(OC)sc4n3)oc2c1 [Example 44] and COc1cc(OCc2cccc(-c3ncccc3C#N)c2)c2cc(-c3cn4nc(OC)sc4n3)oc2c1 [Example 46] are within 0.2 log units of each other in pIC50: 8.92 for the first, 8.79 for the second.

COc1cc(OCc2cccc(-c3cnc(F)c(C)c3)c2)c2cc(-c3cn4nc(OC)sc4n3)oc2c1 [Example 38] and COc1cc(OCc2cccc(-c3ncc(F)cc3F)c2)c2cc(-c3cn4nc(OC)sc4n3)oc2c1 [Example 33] are the same in pIC50: 9.17 for the first, 9.17 for the second.

Going from CSc1nn2cc(-c3nc4c(OCc5ccccc5-c5ccccc5)cccc4o3)nc2s1 [Example 80] to COc1cc(OCc2cccc(-c3csc4ccccc34)c2)c2cc(-c3cn4nc(OC)sc4n3)oc2c1 [Example 12], the pIC50 rises from 5.50 to 8.42 (2.92 log units).

COc1cc(OCc2cccc(-c3ccc(OC4CCCCO4)cn3)c2)c2cc(-c3cn4nc(OC)sc4n3)oc2c1 (stereo not shown) [Example 89] and COc1cc(OCc2cccc(-c3ccc(C(C)OC4CCCCO4)cn3)c2)c2cc(-c3cn4nc(OC)sc4n3)oc2c1 (stereo not shown) [Example 86, 2-Methoxy-6-(6-methoxy-4-((3-(5-(1-((tetrahydro-2H-pyran-2-yl)oxy)ethyl)pyridin-2-yl)benzyl)oxy)benzofuran-2-yl)imidazo[2,1-b][1,3,4]thiadiazole] are within 0.2 log units of each other in pIC50: 9.10 for the first, 9.25 for the second.

COc1cc(OCc2cccc(-c3cnn(C)c3)c2)c2cc(-c3cn4nc(OC)sc4n3)oc2c1 [Example 10] and COc1cc(OCc2cccc(-c3ccnc(C)c3)c2)c2cc(-c3cn4nc(OC)sc4n3)oc2c1 [Example 27] are within 0.2 log units of each other in pIC50: 8.45 for the first, 8.37 for the second.

First: COc1cc(OCc2ccnc(-c3cccc(C#N)c3)n2)c2cc(-c3cn4nc(OC)sc4n3)oc2c1 [Example 99]
Second: COc1cc(OCc2cccc(-c3ncccn3)c2)c2cc(-c3cn4nc(OC)sc4n3)oc2c1 [Example 3, 2-Methoxy-6-(6-methoxy-4-((3-(pyrimidin-2-yl)benzyl)oxy)benzofuran-2-yl)imidazo[2,1-b][1,3,4]thiadiazole]
The pIC50 of the first is 1.20 log units lower: 7.31 for the first, 8.51 for the second.

COc1cc(OCc2cccc(C3(F)CCOCC3)n2)c2cc(-c3cn4nc(OC)sc4n3)oc2c1 [Example 113, 6-(4-((6-(4-Fluorotetrahydro-2H-pyran-4-yl)pyridin-2-yl)methoxy)-6-methoxybenzofuran-2-yl)-2-methoxyimidazo[2,1-b][1,3,4]thiadiazole] and COc1cc(OCc2cccc(C3(O)CCOCC3)n2)c2cc(-c3cn4nc(OC)sc4n3)oc2c1 [Example 109, 4-(6-(((6-Methoxy-2-(2-methoxyimidazo[2,1-b][1,3,4]thiadiazol-6-yl)benzofuran-4-yl)oxy)methyl)pyridin-2-yl)tetrahydro-2H-pyran-4-ol] are within 0.2 log units of each other in pIC50: 9.46 for the first, 9.35 for the second.

Going from COc1cc(OCc2cccc(-c3ccc4nncn4c3)c2)c2cc(-c3cn4nc(OC)sc4n3)oc2c1 [Example 22] to COc1cc(OCc2cccc(-c3ccc(Cl)nc3)c2)c2cc(-c3cn4nc(OC)sc4n3)oc2c1 [Example 56], the pIC50 rises from 7.63 to 9.13 (1.50 log units).

COc1cc(OCc2cccc(C3CCCCC3)c2)c2cc(-c3cn4nc(OC)sc4n3)oc2c1 [Example 95] and COc1cc(OCc2cccc(C3CCOCC3)c2)c2cc(-c3cn4nc(OC)sc4n3)oc2c1 [Example 92, 2-Methoxy-6-(6-methoxy-4-((3-(tetrahydro-2H-pyran-4-yl)benzyl)oxy)benzofuran-2-yl)imidazo[2,1-b][1,3,4]thiadiazole] are within 0.2 log units of each other in pIC50: 9.16 for the first, 9.14 for the second.

COc1cc(OCc2cccc(-c3c(C)noc3C)c2)c2cc(-c3cn4nc(OC)sc4n3)oc2c1 [Example 5] and COc1cc(OCc2cccc(-c3csc(C)n3)c2)c2cc(-c3cn4nc(OC)sc4n3)oc2c1 [Example 11] are within 0.2 log units of each other in pIC50: 8.63 for the first, 8.44 for the second.

First: COc1cc(OCc2cccc(-c3nc(CO)c(C)s3)c2)c2cc(-c3cn4nc(OC)sc4n3)oc2c1 [Example 106, (2-(3-(((6-Methoxy-2-(2-methoxyimidazo[2,1-b][1,3,4]thiadiazol-6-yl)benzofuran-4-yl)oxy)methyl)phenyl)-5-methylthiazol-4-yl)methanol]
Second: COc1cc(OCc2cccc(-c3ccc(C)nc3F)c2)c2cc(-c3cn4nc(OC)sc4n3)oc2c1 [Example 39]
The pIC50 of the first is 0.48 log units lower: 8.80 for the first, 9.28 for the second.

Compared with COc1cc(OCc2cccc(-c3ccnc(F)c3)c2)c2cc(-c3cn4nc(OC)sc4n3)oc2c1 [Example 55], COc1cc(OCc2cccc(-c3ccc(F)cn3)c2)c2cc(-c3cn4nc(OC)sc4n3)oc2c1 [Example 14] is 0.34 log units lower in pIC50: 9.16 for the first, 8.82 for the second. The first is the more potent here.

First: COc1ccc(-c2cccc(COc3cc(OC)cc4oc(-c5cn6nc(OC)sc6n5)cc34)n2)cc1 [Example 78]
Second: COc1cc(OCc2cccc(-c3ccc(Cl)nc3)n2)c2cc(-c3cn4nc(OC)sc4n3)oc2c1 [Example 76]
The pIC50 of the first is 0.84 log units higher: 9.02 for the first, 8.18 for the second. The first is the more potent here.

Compared with COc1cc(OCc2cccc(-c3ccc(C(=O)O)nc3)c2)c2cc(-c3cn4nc(OC)sc4n3)oc2c1 [Example 84, 5-(3-(((6-Methoxy-2-(2-methoxyimidazo[2,1-b][1,3,4]thiadiazol-6-yl)benzofuran-4-yl)oxy)methyl)phenyl)picolinic acid], COc1cc(OCc2cccc(-c3ccc(C(=O)N4CCOCC4)nc3)c2)c2cc(-c3cn4nc(OC)sc4n3)oc2c1 [Example 57] is 1.59 log units higher in pIC50: 7.19 for the first, 8.78 for the second. The second is the more potent here.

COc1ccc(-c2cc(F)cc(COc3cc(OC)cc4oc(-c5cn6nc(OC)sc6n5)cc34)c2)nc1 [Example 62, 6-(4-((3-Fluoro-5-(5-methoxypyridin-2-yl)benzyl)oxy)-6-methoxybenzofuran-2-yl)-2-methoxyimidazo[2,1-b][1,3,4]thiadiazole] and COc1cc(COc2cc(OC)cc3oc(-c4cn5nc(OC)sc5n4)cc23)cc(-c2ccc(Cl)nc2)c1 [Example 66, 6-(4-((3-(6-Chloropyridin-3-yl)-5-methoxybenzyl)oxy)-6-methoxybenzofuran-2-yl)-2-methoxyimidazo[2,1b][1,3,4]thiadiazole] are within 0.2 log units of each other in pIC50: 9.08 for the first, 9.24 for the second.

COc1cc(OCc2cccc(-c3cnc(OC)nc3OC)c2)c2cc(-c3cn4nc(OC)sc4n3)oc2c1 [Example 19] and COc1ccc(-c2cccc(COc3cc(OC)cc4oc(-c5cn6nc(OC)sc6n5)cc34)c2)c(C)c1 [Example 8] are within 0.2 log units of each other in pIC50: 8.62 for the first, 8.77 for the second.

First: COc1cc(OCc2ccnc(C3CC3)n2)c2cc(-c3cn4nc(OC)sc4n3)oc2c1 [Example 103]
Second: COc1cc(OCc2ccnc(C3COc4ccccc4O3)n2)c2cc(-c3cn4nc(OC)sc4n3)oc2c1 (stereo not shown) [Example 104]
The pIC50 of the first is 0.21 log units lower: 8.86 for the first, 9.07 for the second.

COc1cc(OCc2cc(F)cc(-c3ncc(F)cc3F)c2)c2cc(-c3cn4nc(OC)sc4n3)oc2c1 [Example 70] and COc1cc(OCc2cccc(-c3ncc(Cl)cc3F)c2)c2cc(-c3cn4nc(OC)sc4n3)oc2c1 [Example 50] are within 0.2 log units of each other in pIC50: 8.83 for the first, 8.73 for the second.

First: CCCOc1ncc(-c2cccc(COc3cc(OC)cc4oc(-c5cn6nc(OC)sc6n5)cc34)c2)cn1 [Example 37]
Second: COCOc1cnc(-c2cccc(COc3cc(OC)cc4oc(-c5cn6nc(OC)sc6n5)cc34)c2)cn1 [Example 58]
The pIC50 of the first is 0.53 log units higher: 9.44 for the first, 8.91 for the second.

Going from COc1cc(OCc2cccc(-c3ccc(C(C)O)cn3)c2)c2cc(-c3cn4nc(OC)sc4n3)oc2c1 (stereo not shown) [Example 87, 1-(6-(3-(((6-Methoxy-2-(2-methoxyimidazo[2,1-b][1,3,4]thiadiazol-6-yl)benzofuran-4-yl)oxy)methyl)phenyl)pyridin-3-yl)ethanol] to COc1cc(OCc2cccc(-c3ccc(C)cn3)c2)c2cc(-c3cn4nc(OC)sc4n3)oc2c1 [Example 25], the pIC50 falls from 8.95 to 8.69 (0.26 log units). The first is the more potent here.

First: COc1cc(OCc2ccnc(-c3csc(C)n3)n2)c2cc(-c3cn4nc(OC)sc4n3)oc2c1 [Example 102]
Second: COc1cc(OCc2cccc(-c3ccc(Cl)cn3)c2)c2cc(-c3cn4nc(OC)sc4n3)oc2c1 [Example 36]
The pIC50 of the first is 0.28 log units lower: 9.14 for the first, 9.42 for the second.

First: COc1cc(OCc2cccc(-c3cnc(C#N)cn3)c2)c2cc(-c3cn4nc(OC)sc4n3)oc2c1 [Example 42]
Second: COc1cc(OCc2cccc(-c3cnc4ccccn34)c2)c2cc(-c3cn4nc(OC)sc4n3)oc2c1 [Example 21]
The pIC50 of the first is 0.85 log units higher: 8.98 for the first, 8.13 for the second.

Going from COc1cc(OCc2cccc(-c3coc(C(N)=O)c3)c2)c2cc(-c3cn4nc(OC)sc4n3)oc2c1 [Example 41] to COc1cc(OCc2cccc(-c3ccc(O)cc3)c2)c2cc(-c3cn4nc(OC)sc4n3)oc2c1 [Example 90], the pIC50 rises from 8.06 to 8.31 (0.25 log units). The second is the more potent here.

Compared with COCCN(C)C(=O)c1ccc(-c2cccc(COc3cc(OC)cc4oc(-c5cn6nc(OC)sc6n5)cc34)c2)cn1 [Example 85, 5-(3-(((6-Methoxy-2-(2-methoxyimidazo[2,1-b][1,3,4]thiadiazol-6-yl)benzofuran-4-yl)oxy)methyl)phenyl)-N-(2-methoxyethyl)-N-methylpicolinamide], COc1cc(OCc2cccc(-c3ccc4nsnc4c3)c2)c2cc(-c3cn4nc(OC)sc4n3)oc2c1 [Example 20] is 0.76 log units lower in pIC50: 8.83 for the first, 8.07 for the second.

First: COc1cc(OCc2cccc(C3(OC)CCOCC3)n2)c2cc(-c3cn4nc([C@H](C)F)sc4n3)oc2c1 [Example 112, (S)-2-(1-Fluoroethyl)-6-(6-methoxy-4-((6-(4-methoxytetrahydro-2H-pyran-4-yl)pyridin-2-yl)methoxy)benzofuran-2-yl)imidazo[2,1-b][1,3,4]thiadiazole]
Second: COc1cc(OCc2cccc(C3=CCCCC3)c2)c2cc(-c3cn4nc(OC)sc4n3)oc2c1 [Example 94]
The pIC50 of the first is 0.78 log units higher: 9.44 for the first, 8.66 for the second.

Compared with COc1cc(OCc2cncc(-c3ccccc3)c2)c2cc(-c3cn4nc(OC)sc4n3)oc2c1 [Example 72], COc1cc(OCc2cncc(-c3ccoc3)c2)c2cc(-c3cn4nc(OC)sc4n3)oc2c1 [Example 65, 6-(4-((5-(Furan-3-yl)pyridin-3-yl)methoxy)-6-methoxybenzofuran-2-yl)-2-methoxyimidazo[2,1-b][1,3,4]thiadiazole] is 0.83 log units higher in pIC50: 8.14 for the first, 8.97 for the second. The second is the more potent here.

COc1ccc(-c2cncc(COc3cc(OC)cc4oc(-c5cn6nc(OC)sc6n5)cc34)c2)cc1 [Example 73] and COc1cc(OCc2cncc(-c3cnc(OC)nc3)c2)c2cc(-c3cn4nc(OC)sc4n3)oc2c1 [Example 75] are within 0.2 log units of each other in pIC50: 8.66 for the first, 8.67 for the second.

COc1cc(OCc2cccc(-c3cnc(OC)nc3)c2)c2cc(-c3cn4nc(C)ccc4n3)oc2c1 [Example 82, 2-(6-Methoxy-4-((3-(2-methoxypyrimidin-5-yl)benzyl)oxy)benzofuran-2-yl)-6-methylimidazo[1,2-b]pyridazine] was tested, and the pIC50 was 8.88.
